From US8722868B2, “Glycosyltransferase, novel glycosyltransferase gene, and novel sugar donor compound” (National University Corporation Tokyo University of …, priority 2009, dated 2014)

target: T1, crude enzyme obtained from pink petals of a carnation (variety: "Beam Cherry") (glycosyltransferase) (Dianthus caryophyllus, UniProt E3W9M2); test: Relative activity of crude carnation petal enzyme on each sugar donor (glycosyl transfer to cyanidin 3-glucoside, HPLC); type: biochemical; details: crude enzyme 61 μg, cyanidin β-glucoside 200 μM, sugar donor 500 μM, citric acid buffer pH 5.6, 30° C., 15 minutes; HPLC area of cyanidin 3,5-O-β diglucoside
T1 construct: Thus, a crude enzyme liquid was obtained; from tissue; host or cells: pink petals of carnation, variety Beam Cherry (ammonium sulfate precipitate, desalted)
T1 sequence (E3W9M2 31-502): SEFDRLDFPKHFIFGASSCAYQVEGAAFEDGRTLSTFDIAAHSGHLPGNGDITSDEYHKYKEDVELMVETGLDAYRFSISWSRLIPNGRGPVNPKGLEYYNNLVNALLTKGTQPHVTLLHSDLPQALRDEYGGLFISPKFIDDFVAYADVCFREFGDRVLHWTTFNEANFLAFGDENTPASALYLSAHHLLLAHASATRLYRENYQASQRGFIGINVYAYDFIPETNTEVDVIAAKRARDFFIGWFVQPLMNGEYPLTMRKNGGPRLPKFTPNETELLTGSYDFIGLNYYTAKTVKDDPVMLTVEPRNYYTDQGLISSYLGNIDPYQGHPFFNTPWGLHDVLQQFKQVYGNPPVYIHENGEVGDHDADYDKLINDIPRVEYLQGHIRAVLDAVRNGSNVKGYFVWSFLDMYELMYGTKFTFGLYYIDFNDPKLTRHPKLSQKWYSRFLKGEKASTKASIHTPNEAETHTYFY
Protocol: An enzyme reaction was carried out at 30° C. for 15 minutes in a reaction solution obtained by adding a citric acid buffer (pH 5.6) to a crude enzyme obtained from pink petals of a carnation (variety: “Beam Cherry”) (61 μg), cyanidin β-glucoside (200 μM), and a sugar donor (1-O-β-vanillyl glucose extracted from a carnation or any of synthesized 1-O-vanillyl glucose (in the α or β form), 1-O-isovanillyl glucose (in the α or β form), and 1-O-galloyl glucose (in the α or β form)) (500 μM) to a final volume of 30 μl. The reaction was terminated by adding a 20% phosphoric acid aqueous solution to the reaction liquid so as to result in a final phosphoric acid concentration of 1%, followed by centrifugation. The obtained supernatant was subjected to separation using an HPLC (Chromolith Speed ROD; 4.6×50 mm; Merck) with a linear gradient (5 minutes) of 18% to 28% liquid B containing eluent A (a 1.5% phosphoric acid aqueous solution) and eluent B (a 90% methanol aqueous solution) (flow rate: 3.0 ml/min; 520 nm), followed by analysis. The relative activity of the enzyme on each sugar donor was calculated based on the HPLC chromatogram area of a reaction product (cyanidin 3,5-O-β diglucoside) at a wavelength of 505 nm.

Row | Compound | Relative activity of an enzyme on a sugar donor (when synthetic 1-O-β-vanillyl glucose is set as 100)
1 | 1-O-α-vanillyl glucose [1-O-α-vanillyl glucose (synthetic)] | 1.7
2 | COc1ccc(C(=O)O[C@H]2O[C@H](CO)[C@@H](O)[C@H](O)[C@H]2O)cc1O [1-O-α-isovanillyl glucose (synthetic), 1-O-α-isovanillyl glucose] | Not detectable
3 | O=C(O[C@@H]1O[C@H](CO)[C@@H](O)[C@H](O)[C@H]1O)c1cc(O)c(O)c(O)c1 [1-O-β-galloyl glucose (synthetic), 1-O-β-galloyl glucose] | 2.4
4 | COc1ccc(C(=O)OC2OC(CO)C(O)C(O)C2O)cc1O (stereo not drawn) [1-O-β-isovanillyl glucose (synthetic), 1-O-β-isovanillyl glucose] | 23.1

target: T2, enzyme purified from pink petals of a carnation (variety: "Beam Cherry") (glycosyltransferase) (Dianthus caryophyllus, UniProt E3W9M2); test: Relative activity of glycosyltransferase purified from carnation on each sugar donor (HPLC); type: biochemical; details: purified enzyme 135 ng, cyanidin 3-glucoside 200 μM, sugar donor 500 μM, citric acid buffer pH 5.6, 30° C., 15 minutes; HPLC area of cyanidin 3,5-O-β-diglucoside
T2 construct: the enzyme comprising 502 amino acid residues was translated, followed by amino acid removal via processing; from tissue; host or cells: petals of carnation, variety Beam Cherry
T2 sequence (E3W9M2 31-502): T1 sequence (E3W9M2 31-502)
Protocol: An enzyme reaction was carried out at 30° C. for 15 minutes using an enzyme (135 ng) purified from pink petals of a carnation (variety: “Beam Cherry”) by the method described in Example 2 ((1) and (2)), cyanidin 3-glucoside (200 μM), and a sugar donor (1-O-β-D-vanillyl glucose or any of 1-O-β-D-p-coumaryl glucose, 1-O-β-D-caffeyl glucose, 1-O-β-D-feruloyl glucose, and 1-O-β-D-sinapoyl glucose that had been enzymatically synthesized according to the method described in Matsuba Y et al., Plant Biotechnology vol. 25, No. 4 (2008) pp. 369-375) (500 μM) in a reaction solution adjusted to 30 μl with the addition of a citric acid buffer (pH 5.6). A 20% phosphoric acid aqueous solution was added to the reaction liquid so as to result in a final phosphoric acid concentration of 1%. Thus, the reaction was terminated, followed by centrifugation. The resulting supernatant was subjected to separation using a HPLC column (Chromolith SpeedROD, 4.6×50 mm, Merck), eluent A (a 1.5% phosphoric acid aqueous solution), and eluent B (a 90% methanol aqueous solution) with a linear gradient of 18% to 28% liquid B (flow rate: 3.0 ml/min, 520 nm) (5 minutes), followed by analysis. The relative activity of the enzyme on each sugar donor was determined by calculating the area of the reaction product (cyanidin 3,5-O-β-diglucoside) on an HPLC chromatogram at a wavelength of 505 nm.

Row | Compound | Relative activity of an enzyme on a sugar donor (when synthetic 1-O-β-vanillyl glucose is set as 100)
5 | O=C(/C=C/c1ccc(O)c(O)c1)OC1OC(CO)C(O)C(O)C1O [1-O-β-D-caffeyl glucose (synthetic), 1-O-β-caffeyl glucose] | 464
6 | COc1cc(/C=C/C(=O)OC2OC(CO)C(O)C(O)C2O)ccc1O [1-O-β-D-feruloyl glucose (synthetic), 1-O-β-feruloyl glucose] | 1320
7 | O=C(/C=C/c1ccc(O)cc1)OC1OC(CO)C(O)C(O)C1O [1-O-β-D-p-coumaryl glucose (synthetic), 1-O-β-p-coumaryl glucose] | 350
8 | COc1cc(/C=C/C(=O)OC2OC(CO)C(O)C(O)C2O)cc(OC)c1O [1-O-β-D-sinapoyl glucose (synthetic), 1-O-β-sinapoyl glucose] | 793
